Calls of active or inactive are those of the source. The calls are words filed in the database; no cut-off is given here.

Data set [1] is described as follows: Clearance in rhesus monkey plasma at 0.5 mg/kg, iv or 1 mg/kg, po by LC/MS/MS analysis. In kind it is ADME, organism-based, Macaca mulatta.
The target of data set [2] is T1, Free fatty acid receptor 4 (Homo sapiens) (UniProt Q5NUL3).
T1 sequence (whole entry): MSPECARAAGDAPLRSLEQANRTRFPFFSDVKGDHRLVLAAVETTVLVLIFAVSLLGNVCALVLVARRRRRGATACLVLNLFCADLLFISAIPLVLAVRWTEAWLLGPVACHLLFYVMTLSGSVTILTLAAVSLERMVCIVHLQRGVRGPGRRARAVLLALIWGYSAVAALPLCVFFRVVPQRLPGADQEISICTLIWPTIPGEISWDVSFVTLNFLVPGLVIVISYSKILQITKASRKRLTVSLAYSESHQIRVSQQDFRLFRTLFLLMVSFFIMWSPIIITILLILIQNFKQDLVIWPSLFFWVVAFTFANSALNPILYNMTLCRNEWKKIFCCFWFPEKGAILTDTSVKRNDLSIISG
The data set can be described thus: Agonist activity at human GPR120 short isoform expressed in CHOK1 cells assessed as increase in IP1 accumulation at 10 uM after 60 mins by HTRF assay. In kind it is functional, cell-based. The conditions noted are these: CHO-K1.

Data set [3] is described as follows: AUC in rat plasma at 1 mg/kg, iv by LC/MS/MS analysis. In kind it is ADME, organism-based.
The nature of data set [4]: Plasma concentration in C57BL/6 mouse oral glucose tolerance test at 3 mg/kg, po via gavage measured at 3 hrs.
For data set [5], the target named is T2, Peroxisome proliferator-activated receptor gamma (Homo sapiens) (UniProt P37231).
T2 sequence (whole entry): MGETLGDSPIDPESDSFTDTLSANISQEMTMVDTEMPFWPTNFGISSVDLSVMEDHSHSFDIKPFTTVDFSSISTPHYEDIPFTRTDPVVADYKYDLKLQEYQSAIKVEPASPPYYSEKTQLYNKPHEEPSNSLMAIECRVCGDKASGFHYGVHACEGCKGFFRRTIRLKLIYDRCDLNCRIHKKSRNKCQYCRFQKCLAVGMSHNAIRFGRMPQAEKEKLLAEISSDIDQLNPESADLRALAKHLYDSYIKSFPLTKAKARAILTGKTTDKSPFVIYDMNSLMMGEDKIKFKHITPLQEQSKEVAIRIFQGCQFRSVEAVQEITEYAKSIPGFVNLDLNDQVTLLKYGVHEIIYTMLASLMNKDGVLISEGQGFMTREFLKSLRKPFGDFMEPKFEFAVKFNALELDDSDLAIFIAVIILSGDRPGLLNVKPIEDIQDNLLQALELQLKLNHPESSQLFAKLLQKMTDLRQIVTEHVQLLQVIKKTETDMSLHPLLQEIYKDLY
The data set can be described thus: Activity at PPARgamma (unknown origin).

The nature of data set [6]: Clearance in rat plasma at 0.1 mg/kg administered as iv casette dose by LC/MS/MS analysis. In kind it is ADME, organism-based.
Data set [7] in a line: Protein binding in rat plasma at 1 mg/kg, iv or 2 mg/kg, po by LC/MS/MS analysis. In kind it is ADME, organism-based. The note with it: read-out: PPB (converted).
The nature of data set [8]: Terminal half life in rat plasma at 1 mg/kg, iv or 2 mg/kg, po by LC/MS/MS analysis. The note with it: read-out: beta t1/2 (converted). In kind it is ADME, organism-based.
Data set [9] deals with T3, Free fatty acid receptor 4 (Homo sapiens, UniProt Q5NUL3).
T3 sequence (Q5NUL3 whole entry): T1 sequence (whole entry)
As to the kind of experiment: Agonist activity at human GPR120 short isoform expressed in CHOK1 cells assessed as beta-arrestin recruitment after 90 mins by luminescence assay. In kind it is cell-based, CHO-K1. Background: Recruitment of arrestin is a read-out of receptor activation apart from second messengers.

Data set [10] in a line: Terminal half life in rhesus monkey plasma at 0.5 mg/kg, iv or 1 mg/kg, po by LC/MS/MS analysis. In kind it is ADME, organism-based, Macaca mulatta. The note with it: read-out: beta t1/2 (converted).
The next data set has as its system Mus musculus. As to the kind of experiment: In vivo agonist activity at GPR120 in wild type C57BL/6 transverse aortic constriction mouse assessed as glucose lowering effect at 150 mg/kg, po via gavage pretreated for 60 mins followed by dextrose challenge measured up to 120 mins post glucose challenge by OGTT. In kind it is functional, organism-based.
Data set [11] can be described thus: Plasma concentration in GPR120 knockout C57BL/6 transverse aortic constriction mouse at 150 mg/kg, po measured at 3 hrs. In kind it is ADME, organism-based. The conditions noted are these: C57BL/6, mouse.
A short description of data set [12]: AUC in mouse plasma at 2 mg/kg, iv by LC/MS/MS analysis. In kind it is ADME, organism-based.
In data set [13] the target is Free fatty acid receptor 1 (Mus musculus, UniProt Q76JU9). The data set can be described thus: Agonist activity at mouse GPR40 assessed as increase in IP1 accumulation after 60 mins by HTRF assay. In kind it is functional. On the technique in general: TR-FRET usually uses a lanthanide donor and a delayed reading to cut background.
Sequence of Free fatty acid receptor 1 (Q76JU9 whole entry): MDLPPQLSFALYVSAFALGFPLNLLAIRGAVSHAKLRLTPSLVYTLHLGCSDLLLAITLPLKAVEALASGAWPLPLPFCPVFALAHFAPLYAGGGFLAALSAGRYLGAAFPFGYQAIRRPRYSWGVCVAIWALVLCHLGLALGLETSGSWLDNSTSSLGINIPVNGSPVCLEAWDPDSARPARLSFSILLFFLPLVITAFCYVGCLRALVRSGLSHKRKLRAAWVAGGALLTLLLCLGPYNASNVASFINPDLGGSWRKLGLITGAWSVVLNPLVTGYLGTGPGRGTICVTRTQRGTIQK
A short description of data set [14]: Mean residence time in rat plasma at 1 mg/kg, iv or 2 mg/kg, po by LC/MS/MS analysis. In kind it is ADME, organism-based.
The nature of data set [15]: Mean residence time in rhesus monkey plasma at 0.5 mg/kg, iv or 1 mg/kg, po by LC/MS/MS analysis. In kind it is ADME, organism-based, Macaca mulatta.
The target of data set [16] is T4, Free fatty acid receptor 4 (Mus musculus, UniProt Q7TMA4).
T4 sequence (Q7TMA4 whole entry): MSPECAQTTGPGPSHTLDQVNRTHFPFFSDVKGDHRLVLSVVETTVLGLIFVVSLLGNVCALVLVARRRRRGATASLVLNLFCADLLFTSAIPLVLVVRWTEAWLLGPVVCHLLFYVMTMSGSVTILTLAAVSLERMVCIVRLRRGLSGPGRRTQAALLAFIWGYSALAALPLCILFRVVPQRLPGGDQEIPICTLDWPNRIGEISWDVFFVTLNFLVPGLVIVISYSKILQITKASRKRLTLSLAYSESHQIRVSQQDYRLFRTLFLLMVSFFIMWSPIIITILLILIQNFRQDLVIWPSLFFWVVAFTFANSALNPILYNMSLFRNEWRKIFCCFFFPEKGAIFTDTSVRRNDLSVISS
The data set can be described thus: Agonist activity at mouse GPR120 expressed in CHOK1 cells assessed as increase in IP1 accumulation after 60 mins by HTRF assay. In kind it is functional, cell-based, CHO-K1.

The target in data set [17] is T5, Peroxisome proliferator-activated receptor delta (Homo sapiens) (UniProt Q03181).
T5 sequence (whole entry): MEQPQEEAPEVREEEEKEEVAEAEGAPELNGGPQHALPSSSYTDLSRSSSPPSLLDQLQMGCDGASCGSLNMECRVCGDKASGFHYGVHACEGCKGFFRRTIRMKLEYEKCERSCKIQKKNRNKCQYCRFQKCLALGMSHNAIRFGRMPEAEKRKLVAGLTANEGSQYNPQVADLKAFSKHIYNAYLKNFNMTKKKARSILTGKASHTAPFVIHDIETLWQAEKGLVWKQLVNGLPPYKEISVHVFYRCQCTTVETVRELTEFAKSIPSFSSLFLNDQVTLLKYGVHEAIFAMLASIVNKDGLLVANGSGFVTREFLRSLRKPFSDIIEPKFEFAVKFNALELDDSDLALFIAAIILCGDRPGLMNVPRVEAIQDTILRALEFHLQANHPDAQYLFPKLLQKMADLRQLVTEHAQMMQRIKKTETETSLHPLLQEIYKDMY
The data set can be described thus: Activity at PPARdelta (unknown origin).

Data set [18] is described as follows: Protein binding in rat plasma at 0.1 mg/kg administered as iv casette dose by LC/MS/MS analysis. In kind it is ADME, organism-based. The note with it: read-out: PPB (converted).
In the next data set the target is Cytochrome P450 2D6 (Homo sapiens, UniProt P10635). The data set can be described thus: Inhibition of human CYP2D6. In kind it is ADME.
Sequence of Cytochrome P450 2D6 (P10635 whole entry): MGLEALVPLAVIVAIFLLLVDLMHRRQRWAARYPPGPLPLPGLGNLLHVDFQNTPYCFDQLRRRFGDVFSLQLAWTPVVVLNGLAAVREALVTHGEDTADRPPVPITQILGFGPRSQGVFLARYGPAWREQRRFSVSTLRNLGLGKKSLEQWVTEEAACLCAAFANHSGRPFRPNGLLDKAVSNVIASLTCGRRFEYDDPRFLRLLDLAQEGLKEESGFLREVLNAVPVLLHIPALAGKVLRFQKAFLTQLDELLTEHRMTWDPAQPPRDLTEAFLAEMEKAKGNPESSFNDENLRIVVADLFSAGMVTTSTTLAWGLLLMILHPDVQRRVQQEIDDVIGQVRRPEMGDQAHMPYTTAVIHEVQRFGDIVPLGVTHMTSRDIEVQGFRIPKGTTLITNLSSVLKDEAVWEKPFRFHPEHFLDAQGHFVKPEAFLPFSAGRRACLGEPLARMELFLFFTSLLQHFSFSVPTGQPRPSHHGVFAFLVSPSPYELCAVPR

As a reminder, the AUC is the area under the concentration-time curve, a measure of exposure. As usually defined, the EC50 is the midpoint of the concentration-response curve. By MRT is commonly meant a mean duration of stay, worked out from the concentration-time curve. Usually IC50 stands for the concentration at which inhibition is half-maximal. Consider `CO[C@H]1C[C@H](Oc2cc(F)c(F)c(-c3ccc4c(c3)CC[C@H](CCC(=O)O)O4)n2)C1`, for which the values for the clearance in data set [1] and in data set [6] were 0.33 mL/min/kg and 1.3 mL/min/kg, respectively. In addition, the Activity in data set [2] is above 50%; in data set [5], above 10 µM; in [17], above 10 µM. Moreover, the AUC in data set [3] turned out to be 35.9 µM·h; in [12] it was 8.1 µM·h. Besides, the concentration at 3 h in [4] amounted to 0.75 µM; in data set [11], 53.4 µM. Further, the fraction unbound in [7] and in [18] was 0.0024 throughout. Further, the half-life was 4.6 h in data set [8] and 9.8 h in data set [10]. The EC50 in data set [9] was 24 nM; in data set [13], above 10000 nM; in [16] it was 6.4 nM. Moreover, the result in the data set on Mus musculus was Active. Moreover, the MRT in [14] turned out to be 4.6 h; in data set [15], 13.5 h. At Cytochrome P450 2D6, the IC50 is above 50000 nM.

For the origin of these results see ChEMBL document CHEMBL3871307, “Discovery of Chromane Propionic Acid Analogues as Selective Agonists of GPR120 with in Vivo Activity in Rodents” (ACS Med Chem Lett, 2017).
